Literature values in patent EP1464334A1 (priority 2003, dated 2004).
Counter-ions that a name gives are not always drawn. Like-named read-outs stand apart in the source and are kept apart here.

How the values were obtained:
[1] = mouse, in vivo, po
[2] = rabbit, in vivo, po

## CCN(CC)CCCC(C)Nc1c2ccc(Cl)cc2nc2ccc(OC)cc12 (centres unmarked) [Chinacrinhydrochlorid]
[1]
  LD50-Dosis: 557 mg/kg
[2]
  LD50-Dosis: 433 mg/kg
